Results on eleven compounds are retold here after ChEMBL document CHEMBL1201862, “PubChem BioAssay data set” (2004).

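96-well plates; 48 h exposure; 5 concentrations. Endpoints by linear interpolation between flanking doses. Not reached: highest tested concentration assigned. GI50 marks 50% less growth.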 Calls of active or inactive are those of the source. Rule as the data show it: active = GI50 up to about 1.1 µM and inactive = higher.

Among the test systems are RPMI-8226; 786-0; MCF7; KM12; U-251; Hs-578T; HCT-15; BT-549; Malme-3M; NCI-H522; NCI-H23; MOLT-4; NCI/ADR-RES; MDA-N; A549; HOP-62; MDA-MB-231; OVCAR-5; EKVX; SK-MEL-2.
Common to all, as to experiment: NCI tumour cell line growth inhibition, 48 h

For the compound `C=C1CC2CCCC12C=O` (configuration not stated), the GI50 in the assay with RPMI-8226, in the assay with 786-0, in the assay with MCF7, in the assay on KM12, with U-251 and in the assay with Hs-578T was > 10 µM (inactive) throughout. Further, the GI50 in the assay with HCT-15 was above 10 µM; in the assay with BT-549, > 10 µM (inactive); in the assay with Malme-3M, > 10 µM (inactive); in the assay with NCI-H522 it was > 10 µM (inactive); in the assay with NCI-H23, > 10 µM (inactive); with MOLT-4 it was > 10 µM (inactive). Moreover, the GI50 in the assay on NCI/ADR-RES, with MDA-N, in the assay with A549, in the assay on HOP-62 and with MDA-MB-231 was > 10 µM (inactive) in each case.
For the compound `O=C(OCc1ccccc1)C(Cc1ccc(OCc2ccccc2)cn1)NC(=O)C(F)(F)F` (configuration not stated), the GI50 in the assay with RPMI-8226 was 92.5 µM (inactive); with 786-0, > 100 µM (inactive); with MCF7, > 10 µM (inactive); with KM12 it was > 100 µM (inactive); in the assay with U-251, 72.3 µM (inactive); in the assay on Hs-578T it was > 100 µM (inactive). The GI50 in the assay on HCT-15 was 46.3 µM; in the assay on BT-549, > 100 µM (inactive); with Malme-3M, > 100 µM (inactive); in the assay on NCI-H522 it was 79.8 µM (inactive); in the assay with NCI-H23, 86.9 µM (inactive); with MOLT-4, 33.7 µM (inactive). Also, the GI50 with NCI/ADR-RES was > 100 µM (inactive); in the assay on MDA-N, > 100 µM (inactive); in the assay on A549 it was 62.8 µM (inactive); in the assay with OVCAR-5 it was > 100 µM (inactive); in the assay on HOP-62, > 100 µM (inactive); in the assay with MDA-MB-231, > 100 µM (inactive). Also, the GI50 with EKVX was > 100 µM (inactive).
In the case of `COc1ccccc1CNCc1nc2ccccc2[nH]1`, the GI50 in the assay with RPMI-8226, with 786-0, in the assay with MCF7, with KM12, in the assay on U-251 and with Hs-578T was > 100 µM (inactive) throughout. The GI50 is above 100 µM with HCT-15; > 100 µM (inactive) with BT-549; > 100 µM (inactive) in the assay with NCI-H522; > 100 µM (inactive) in the assay with NCI-H23; > 100 µM (inactive) with MOLT-4; > 100 µM (inactive) in the assay on NCI/ADR-RES. The GI50 was > 100 µM (inactive) with MDA-N; > 100 µM (inactive) with A549; > 100 µM (inactive) with OVCAR-5; > 100 µM (inactive) in the assay with HOP-62; > 100 µM (inactive) in the assay with MDA-MB-231; 92.9 µM (inactive) in the assay on EKVX. Also, in the assay with SK-MEL-2, the GI50 was > 100 µM (inactive).
Regarding `C/C=C1/CN2CC[C@@H]3c4ccccc4N4[C@H](C(=O)OC)[C@H]1C[C@H]2[C@]34/C=C/C1=COC[C@@H]2[C@H]1C[C@H]1c3c(c4ccccc4n3C)C[C@@H]2N1C`, the GI50 in the assay on RPMI-8226 is 4.09 µM (inactive); with MCF7 it was 4.55 µM (inactive); in the assay with U-251 it was 3.72 µM (inactive); in the assay with Hs-578T, 4.48 µM (inactive); with HCT-15, 4.14 µM; in the assay with BT-549, 4.32 µM (inactive). Further, the GI50 is 4.62 µM (inactive) with Malme-3M; 4.39 µM (inactive) in the assay with NCI-H23; 4.02 µM (inactive) in the assay with MOLT-4; 3.46 µM (inactive) in the assay on NCI/ADR-RES; 2.32 µM (inactive) in the assay on MDA-N; 4.16 µM (inactive) in the assay with A549. For the same compound, the GI50 with OVCAR-5 is 4.33 µM (inactive); in the assay on HOP-62, 3.82 µM (inactive); with MDA-MB-231 it was 4.02 µM (inactive); in the assay with EKVX, 2.99 µM (inactive); in the assay on SK-MEL-2 it was 4.33 µM (inactive).
`CCOC(=O)O/C(=C\c1ccc(OC)cc1)c1c(OC(=O)OCC)n(C(=O)OCC)c2ccccc12`: the GI50 is 1.83 µM (inactive) in the assay on RPMI-8226; 39.5 µM (inactive) with 786-0; 25.1 µM (inactive) in the assay on MCF7; 7.83 µM (inactive) in the assay with KM12; 24.7 µM (inactive) with U-251; 22.3 µM (inactive) with Hs-578T. In addition, the GI50 in the assay with HCT-15 was 7.05 µM; in the assay on BT-549, 39.5 µM (inactive); with Malme-3M, 58.6 µM (inactive); in the assay with NCI-H23 it was 27.9 µM (inactive); in the assay with NCI/ADR-RES it was 43.9 µM (inactive); in the assay on MDA-N it was 19.3 µM (inactive). For the same compound, the GI50 with A549 is 34.4 µM (inactive); in the assay with OVCAR-5, 76.9 µM (inactive); in the assay on HOP-62 it was 19.9 µM (inactive); in the assay on MDA-MB-231, 18.5 µM (inactive); with EKVX, 88.9 µM (inactive); in the assay on SK-MEL-2, 35 µM (inactive).
As to `Cc1ccc(S(=O)(=O)N(CCN)c2cc3c4c(c2)Oc2cccc5c2C4c2c(cccc2O3)O5)cc1`, the GI50 is 30.8 µM (inactive) in the assay with RPMI-8226; 16.6 µM (inactive) with 786-0; 20.7 µM (inactive) with MCF7; > 100 µM (inactive) with KM12; 19.6 µM (inactive) in the assay with U-251; 17 µM (inactive) in the assay with Hs-578T. The GI50 is 81.1 µM with HCT-15; 47.2 µM (inactive) in the assay on BT-549; 10.5 µM (inactive) in the assay on Malme-3M; 36.1 µM (inactive) in the assay on NCI-H23; 18.5 µM (inactive) in the assay on MOLT-4; 10.7 µM (inactive) in the assay on NCI/ADR-RES. In addition, the GI50 was 23.8 µM (inactive) in the assay on MDA-N; 25.7 µM (inactive) in the assay with A549; 21.2 µM (inactive) in the assay with OVCAR-5; 15.4 µM (inactive) in the assay on HOP-62; 17.9 µM (inactive) in the assay with MDA-MB-231; 13.6 µM (inactive) in the assay on EKVX. Also, in the assay with SK-MEL-2, the GI50 is 22.8 µM (inactive).
In the case of `O=C1CC(CC(O)[C@@H]2CCCC[C@@H]2O)CC(=O)N1c1ccccc1` (some centres not stated), the GI50 in the assay with RPMI-8226, in the assay with 786-0, in the assay with MCF7, in the assay with KM12, in the assay with U-251 and in the assay on Hs-578T was > 100 µM (inactive) in each case. The GI50 in the assay with HCT-15 was above 100 µM; in the assay on BT-549, > 100 µM (inactive); in the assay with Malme-3M, > 100 µM (inactive); in the assay on NCI-H522, > 100 µM (inactive); in the assay with NCI-H23, > 100 µM (inactive); with MOLT-4, > 100 µM (inactive). In addition, the GI50 with NCI/ADR-RES, with MDA-N, in the assay on A549, with OVCAR-5, with HOP-62 and with MDA-MB-231 was > 100 µM (inactive) each time.
`O=C1CS(=O)(=O)C(c2cccc(Oc3ccccc3)c2)N1c1ccccc1` (configuration not stated): the GI50 was 17.8 µM (inactive) in the assay on 786-0; 14.3 µM (inactive) with MCF7; 25.8 µM (inactive) in the assay with KM12; 16.6 µM (inactive) in the assay with U-251; 28.4 µM (inactive) with Hs-578T; 22 µM in the assay on HCT-15. The GI50 in the assay on BT-549 was 20.1 µM (inactive); in the assay on Malme-3M, 20.5 µM (inactive); in the assay on NCI-H522, 18.9 µM (inactive); with NCI-H23, 25.1 µM (inactive); with MOLT-4, 20.4 µM (inactive); in the assay with NCI/ADR-RES, 22 µM (inactive). Also, the GI50 with MDA-N was 17.9 µM (inactive); in the assay on A549, 35.1 µM (inactive); in the assay on OVCAR-5, 31.6 µM (inactive); in the assay with HOP-62, 36.7 µM (inactive); with MDA-MB-231, 19.9 µM (inactive); in the assay on EKVX, 16.4 µM (inactive). For the same compound, in the assay with SK-MEL-2, the GI50 was 16.1 µM (inactive).
Consider `Cc1nc(C)c(C(=O)NNC(=O)c2ccccc2)cc1C(=O)NNC(=O)c1ccccc1`, for which the GI50 with RPMI-8226 is > 100 µM (inactive); in the assay with 786-0 it was > 100 µM (inactive); in the assay with MCF7 it was > 100 µM (inactive); in the assay on KM12, > 10 µM (inactive); in the assay on U-251, > 100 µM (inactive); with Hs-578T, > 100 µM (inactive). The GI50 with HCT-15 is above 100 µM; in the assay with BT-549, > 100 µM (inactive); in the assay with NCI-H522 it was > 100 µM (inactive); in the assay with NCI-H23 it was > 100 µM (inactive); in the assay on MOLT-4, > 100 µM (inactive); in the assay with NCI/ADR-RES, > 100 µM (inactive). The GI50 was > 100 µM (inactive) with MDA-N; > 100 µM (inactive) in the assay with A549; > 100 µM (inactive) in the assay on OVCAR-5; > 100 µM (inactive) with HOP-62; > 100 µM (inactive) with MDA-MB-231; > 10 µM (inactive) in the assay on EKVX. Moreover, the GI50 in the assay on SK-MEL-2 was > 100 µM (inactive).
As to `c1csc(-c2ccsc2-c2ccsc2)c1`, the GI50 is 30.2 µM (inactive) in the assay on RPMI-8226; 97.3 µM (inactive) in the assay on 786-0; > 100 µM (inactive) in the assay on MCF7; 48.4 µM (inactive) in the assay with KM12; > 100 µM (inactive) in the assay on U-251; 90.2 µM (inactive) in the assay on Hs-578T. Moreover, the GI50 was 39.8 µM in the assay on HCT-15; > 100 µM (inactive) in the assay with BT-549; 43.5 µM (inactive) in the assay on NCI-H23; 28.4 µM (inactive) in the assay on MOLT-4; 76 µM (inactive) in the assay on NCI/ADR-RES; 73.1 µM (inactive) in the assay on MDA-N. In addition, the GI50 was 43.1 µM (inactive) in the assay with A549; > 100 µM (inactive) in the assay on OVCAR-5; > 100 µM (inactive) in the assay on HOP-62; > 100 µM (inactive) in the assay with MDA-MB-231; 53.8 µM (inactive) in the assay on EKVX; 17.5 µM (inactive) with SK-MEL-2.
As to `CCCC1CCC(=C2C(=O)CCC2=O)O1` (configuration not stated), the GI50 in the assay with RPMI-8226, with 786-0, with MCF7, in the assay with KM12, with U-251 and in the assay with Hs-578T was > 100 µM (inactive) in each case. Also, the GI50 is above 100 µM in the assay with HCT-15; > 100 µM (inactive) in the assay with BT-549; > 100 µM (inactive) in the assay on NCI-H522; > 100 µM (inactive) in the assay with NCI-H23; 0.849 µM (active) in the assay with MOLT-4; > 100 µM (inactive) in the assay with NCI/ADR-RES. The GI50 in the assay with MDA-N, in the assay with A549, in the assay on OVCAR-5, with HOP-62, with MDA-MB-231 and with EKVX was > 100 µM (inactive) each time. The GI50 with SK-MEL-2 is > 100 µM (inactive).
